According to patent US20070036843A1, “Non-ionic non-aqueous vehicles for topical and oral administration of carrier-complexed active agents” (Collegium Pharmaceutical, Inc., priority 2005, published 2007):

Experiment: Release of albuterol from resinate in various vehicles (membrane-bottomed insert over wells of aqueous solution, simulating topical application to skin)
Type: physicochemical
Conditions: room temperature, sampled 0.5, 1, 2 and 4 hours
Protocol: Albuterol was detected by HPLC on a Waters “Resolve” 5 micron spherical C18 resin column, with a mobile phase of 70% buffer and 30% methanol. Buffer was 4.4 g 1-heptane sulfonic acid in 100 g DI water, adjusted to pH 3.2±0.1 with glacial acetic acid. Albuterol extraction solvent was 10% v/v 0.5 M Na Acetate in ethanol. A stock solution of 0.5 mg albuterol/ml extraction buffer was diluted with 25 volumes of “diluent” (30:70 methanol:DI water, v:v) at the time of use. Samples were extracted to determine albuterol content by transferring 200 mg albuterol resin to a 250 ml flask, using extraction solvent; bringing the volume to about 220 ml of extraction solvent; shaking overnight at room temperature; adding extraction solvent to 250 ml; filtering an aliquot; and diluting filtered solution with 24 volumes of diluent. This solution was analyzed by HPLC, and the amount was determined by comparison with a chromatogram of the standard.
A system was developed to simulate the effects of topical application of a resin-bound drug in a vehicle to skin. […]
The experimental design allowed the pores of the membrane to fill with the aqueous solution. […] Wells were sampled at various times and the fluid was analyzed for albuterol. […]
7.5 g phosphate buffer (pH 6.8; 0.05 M) was added to each well. […] The inserts were removed, and the fluid in the wells (12 in all) was analyzed for albuterol by HPLC. […]

Release of albuterol (albuterol resinate directly in ionic aqueous solution (phosphate buffer pH 6.8, 0.05 M), no vehicle, compared with NINA vehicles): fastest
Release of albuterol (albuterol resinate in hydrophobic castor oil/colloidal silica (2.5%) vehicle without surfactant, phosphate buffer pH 6.8 in well): not detectable
SMILES: CC(C)(C)NCC(O)c1ccc(O)c(CO)c1 (centres unmarked) [albuterol, Albuterol]
